The results in this text go back to US7420083B2, “Substituted aryloximes” (Wyeth, priority 2003, dated 2008).

Molecules are shown by their SMILES.

The target in series [1] is T1, recombinant human plasminogen activator inhibitor-1 (PAI-1) (Homo sapiens, UniProt P05121).
T1 construct: purchased Molecular Innovations, Royal Oak, Mich
Kind of series: Screening for PAI-1 inhibition (chromogenic tPA activity assay, Spectrozyme-tPA). In kind it is biochemical. To be noted: for IC50: footnote b: IC50 determined by a modification of the Primary Screen for PAI-1 Inhibition. As to the method: Screening for PAI-1 inhibition. Test compounds are dissolved in DMSO at a final concentration of 10 mM, then diluted 100×in physiologic buffer. The inhibitory assay is initiated by the addition of the test compound (1-100 μM final concentration, maximum DMSO concentration of 0.2%) in a pH 6.6 buffer containing 140 nM recombinant human plasminogen activator inhibitor-1 (PAI-1; Molecular Innovations, Royal Oak, Mich.). Following a 1 hour incubation at room temperature, 70 nM of recombinant human tissue plasminogen activator (tPA) is added, and the combination of the test compound, PAI-1 and tPA is incubated for an additional 30 minutes. Following the second incubation, Spectrozyme-tPA (American Diagnostica, Greenwich, Conn.), a chromogenic substrate for tPA, is added and absorbance read at 405 nm at 0 and 60 minutes. Relative PAI-1 inhibition is equal to the residual tPA activity in the presence of the test compounds and PAI-1. Control treatments include the complete inhibition of tPA by PAI-1 at the molar ratio employed (2:1), and the absence of any effect of the test compound on tPA alone.

Series [2] deals with human PAI-1 (Homo sapiens, UniProt P05121). Kind of series: Assay for determining the IC50 of inhibition of PAI-1 (active PAI-1 bound to tPA-coated plate, 33B8 antibody detection). In kind it is biochemical. Particulars: human PAI-1 50 ng/ml, pH 7.5. The protocol: Assay for determining the IC50 of inhibition of PAI-1. This assay is based upon the non-SDS dissociable interaction between tPA and active PAI-1. Assay plates are initially coated with human tPA (10 μg/ml). Test compounds are dissolved in DMSO at 10 mM, then diluted with physiologic buffer (pH 7.5) to a final concentration of 1-50 μM. The test compounds are incubated with human PAI-1 (50 ng/ml) for 15 minutes at room temperature. The tPA-coated plate is washed with a solution of 0.05% Tween 20 and 0.1% BSA, then the plate is blocked with a solution of 3% BSA. An aliquot of the test compound/PAI-1 solution is then added to the tPA-coated plate, incubated at room temperature for 1 hour, and washed. Active PAI-1 bound to the plate is assessed by adding an aliquot of a 1:1000 dilution of the 33B8 monoclonal antibody against human PAI-1, and incubating the plate at room temperature for 1 hour (Molecular Innovations, Royal Oak, Mich.). The plate is again washed, and a solution of goat anti-mouse IgG-alkaline phosphatase conjugate is added at a 1:50,000 dilution in goat serum. The plate is incubated 30 minutes at room temperature, washed, and a solution of alkaline phosphatase substrate is added. The plate is incubated 45 minutes at room temperature, and color development is determined at OD405 nm. The quantitation of active PAI-1 bound to tPA at varying concentrations of the test compound is used to determine the IC50. Results are analyzed using a logarithmic best-fit equation. The assay sensitivity is 5 ng/ml of human PAI-1 as determined from a standard curve ranging from 0-100 ng/ml.

[3] abbreviates: PAI-1 inhibition at 25 μM test compound, pH 6.6 buffer, 140 nM PAI-1, 70 nM tPA.

T1 sequence (P05121 24-402): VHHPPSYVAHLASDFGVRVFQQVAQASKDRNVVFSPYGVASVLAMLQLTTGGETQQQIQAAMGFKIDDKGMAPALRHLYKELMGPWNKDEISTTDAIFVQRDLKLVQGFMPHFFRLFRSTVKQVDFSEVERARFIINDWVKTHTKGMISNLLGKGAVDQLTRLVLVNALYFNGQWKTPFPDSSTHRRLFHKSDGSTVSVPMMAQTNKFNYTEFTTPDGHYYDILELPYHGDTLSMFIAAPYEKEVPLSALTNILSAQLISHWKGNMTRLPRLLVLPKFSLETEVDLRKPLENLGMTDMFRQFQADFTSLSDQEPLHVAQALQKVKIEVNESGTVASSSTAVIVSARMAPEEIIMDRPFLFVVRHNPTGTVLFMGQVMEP
Sequence of human PAI-1 (P05121 24-402): as above

One may read the inhibition as the drop in the measured response relative to a control, in per cent. The melting point is the temperature, or range, at which the solid turns liquid. The compound `CC(=NOCCCOc1ccc(CC(=O)O)cc1)c1ccc(C(C)(C)C)cc1` [Compound 1, (4-{3-[1-(4-tert-Butyl-phenyl)-ethylideneaminooxy]-propoxy}-phenyl)-acetic Acid] had a melting point of 98.7 to 99.7 °C. The inhibition at 25 µM in series [1] (setting [3]) was determined as 39%.
For the compound `CC(=NOCc1ccc(CC(=O)O)cc1)c1ccc(C(C)(C)C)cc1` [Compound 2, {4-[1-(4-tert-Butyl-phenyl)-ethylideneaminooxymethyl]-phenyl}-acetic Acid], the melting point was 148.9 to 150 °C. For the same compound, in series [1] (setting [3]), the inhibition at 25 µM came to 30%.
Turning to `CC(C)(C)c1ccc(C=NOCc2ccc(CC(=O)O)cc2)cc1` [Compound 3, [4-(4-tert-Butyl-benzylideneaminooxymethyl]-phenyl}-acetic Acid], the melting point fell in the range of 93.3 to 96.2 °C. In series [1] (setting [3]), the inhibition at 25 µM was 19%.
Broadly, the IC50 is the concentration that gives 50% inhibition. Compound `C/C(=N\OCCOc1ccc(C(=O)O)c(O)c1)c1ccc(C(C)(C)C)cc1` [Compound 5, 4-{2-[({(E)-1-[4-(tert-Butyl)-phenyl]-ethylidene}amino)oxy]-ethoxy}-2-hydroxy-benzoic Acid] returned a melting point of 157.4 to 158.7 °C. The IC50 in series [1] was determined as 20.2 µM.
`CC(=NOCCOc1ccc(C(=O)O)c(OC(=O)c2ccc(C(C)(C)C)cc2)c1)c1ccccc1` [Compound 6] returned a concentration for half-maximal inhibition (IC50) in series [2] of 16.7 µM.
As for `CC(C)(C)c1ccc(C=NOCCOc2ccc(C(=O)O)c(O)c2)cc1` [Compound 7, 4-{2-[({[4-(tert-Butyl)phenyl]methylidene}amino)oxy]ethoxy}-2-hydroxybenzoic Acid], the melting point lay within 161.4 to 162.7 °C. Besides, the inhibition at 25 µM in series [1] (setting [3]) stood at 33%.
Consider `CC(C)(C)c1ccc(/C=N/OCCOc2ccc(C(=O)O)c(OC(=O)c3ccc(C(F)(F)F)cc3)c2)cc1` [Compound 8, 4-{2-[({(E)-[4-(tert-Butyl)phenyl]methylidene}amino)oxy]ethoxy}-2-{[4-(trifluoromethyl)benzoyl]oxy}benzoic Acid], for which the melting point was 146.3 to 147.9 °C. Further, in series [1] (setting [3]), the inhibition at 25 µM turned out to be 1%.
`COc1ccc(C(=O)Oc2cc(OCCO/N=C/c3ccc(C(C)(C)C)cc3)ccc2C(=O)O)cc1` [Compound 9, 4-{2-[({(E)-[4-(tert-Butyl)phenyl]methylidene}amino)oxy]ethoxy}-2-[(4-methoxybenzoyl)oxy]benzoic Acid] returned a melting point of 115.5 to 117.5 °C. In addition, the IC50 in series [1] came to 25.6 µM.
For the compound `CC(C)(C)c1ccc(/C=N/OCCOc2ccc(C(=O)O)c(OC(=O)c3ccccc3)c2)cc1` [Compound 11, 2-(Benzoyloxy)-4-{2-[({(E)-[4-(tert-butyl)phenyl]methylidene}amino)oxy]ethoxy}benzoic Acid], the melting point lay in the range of 129.3 to 130.6 °C. Also, the IC50 in series [1] was 8.4 µM.
Consider `C/C(=N\OCCOc1ccc(C(=O)O)cc1Cl)c1ccc(C(C)(C)C)cc1` [Compound 12, 4-{2-[({(E)-1-[4-(tert-Butyl)phenyl]ethylidene}amino)oxy]-ethoxy}-3-chloro-benzoic Acid], for which the melting point fell in the range of 167.1 to 168.8 °C. Also, in series [1], the IC50 came to 11.2 µM.
For `C/C(=N\OCCOc1ccc(C(=O)O)c(Cl)c1)c1ccc(C(C)(C)C)cc1` [Compound 13, 4-{2-[({(E)-1-[4-(tert-Butyl)phenyl]ethylidene}amino)oxy]-ethoxy}-2-chloro-benzoic Acid], the melting point was 142.7 to 143.9 °C. Also, the inhibition at 25 µM in series [1] (setting [3]) is 34%.
Consider `CC(C)(C)c1ccc(C=NOCCOc2ccc(C(=O)O)c(OCc3ccc(C(F)(F)F)cc3)c2)cc1` [Compound 14, 4-{2-[({[4-(tert-Butyl)phenyl]methylidene}amino)oxy]ethoxy}-2-{[4-(trifluoromethyl)benzyl]oxy}benzoic acid], for which the melting point fell in the range of 164.1 to 164.8 °C. The inhibition at 25 µM in series [1] (setting [3]) amounted to 28%.
`CC(C)(C)c1ccc(/C=N/OCCCOc2ccc(CCC(=O)O)cc2)cc1` [Compound 16, 3-(4-{3-[({(E)-[4-(tert-butyl)phenyl]methylidene}amino)oxy]propoxy}phenyl)propanoic Acid] returned a melting point of 101.2 to 102.1 °C. The inhibition at 25 µM in series [1] (setting [3]) was 42%.
On to `CC(C)(C)c1ccc(C=NOCCCOc2ccc(Cc3nnn[nH]3)cc2)cc1` [Compound 17, 4-(tert-Butyl)benzaldehyde 0-{3-[4-(1H-tetraazol-5-ylmethyl)-phenoxy]-propyl}oxime], for which the “% Inhibition @ 25 μM” value in series [1] (setting [3]) is on record as 35%.
`CC(C)(C)c1ccc(/C=N/OCCCOc2ccc(C(=O)O)c(NC(=O)c3ccc(C(C)(C)C)cc3)c2)cc1` [Compound 18, 2-{[4-(tert-Butyl)benzoyl]amino}-4-{3-[({(E)-[4-(tert-butyl)phenyl]methylidene}amino)oxy]propoxy}benzoic Acid] showed a melting point of 192.3 to 193.8 °C. Besides, the IC50 in series [1] stood at 18.5 µM.
`O=C(Nc1cc(OCCCO/N=C/c2ccc(-c3ccccc3)cc2)ccc1C(=O)O)c1ccc(C(F)(F)F)cc1` [Compound 20, 4-[3-({[(1E)-1,1′-Biphenyl-4-ylmethylidene]amino}oxy)propoxy]-2-{[4-(trifluoromethyl)benzoyl]amino}benzoic Acid] gave a melting point of 205.6 to 206.6 °C. Besides, the IC50 in series [1] stood at 25.7 µM.
`C/C(=N\OCCCOc1ccc(C(=O)O)c(NC(=O)c2ccc(C(F)(F)F)cc2)c1)c1ccccc1` [Compound 23, 4-[3-({[(1E)-1-Phenylethylidene]amino}oxy)propoxy]-2-{[4-(trifluoromethyl)benzoyl]amino}benzoic acid] had a melting point of 174.3 to 175.7 °C. Moreover, the inhibition at 25 µM in series [1] (setting [3]) came to 26%.
As for `O=C(O)c1ccc(OCCCO/N=C/c2ccc(-c3ccccc3)cc2)cc1NC(=O)c1ccccc1C(F)(F)F` [Compound 26, 4-[3-({[(1E)-1,1′-biphenyl-4-ylmethylidene]amino}oxy)propoxy]-2-{[2-(trifluoromethyl)benzoyl]amino}benzoic Acid], the melting point is 170.5 to 172.5 °C. Further, the inhibition at 25 µM in series [1] (setting [3]) is 24%.
Compound `O=C(Nc1cc(OCCCO/N=C/c2cc(C(F)(F)F)cc(C(F)(F)F)c2)ccc1C(=O)O)c1ccc(OC(F)(F)F)cc1` [Compound 28, 4-{3-[({(1E)-[3,5-Bis (trifluoromethyl)phenyl]methylidene}amino)oxy]propoxy}-2-{[4-(trifluoromethoxy)benzoyl]amino}benzoic Acid] yielded a melting point of 184.5 to 185.5 °C. In addition, the inhibition at 25 µM in series [1] (setting [3]) was 51%.
In the case of `O=C(Nc1cc(OCCCO/N=C/c2ccc(-c3ccccc3)cc2)ccc1C(=O)O)c1ccc(OC(F)(F)F)cc1` [Compound 29, 4-[3-({[(1E)-1,1′-Biphenyl-4-ylmethylidene]amino}oxy)propoxy]-2-{[4-(trifluoromethoxy)benzoyl]amino}benzoic Acid], the melting point was in the range of 194.5 to 195.5 °C. Further, in series [1] (setting [3]), the inhibition at 25 µM amounted to 70%.
The matching figures for `CC(C)(C)c1ccc(/C=N/OCCCOc2ccc(C(=O)O)c(NC(=O)c3ccc4ccccc4c3)c2)cc1` [Compound 34, 4-[3-({[(1E)-(4-tert-Butylphenyl)methylidene]amino}oxy)propoxy]-2-(2-naphthoylamino)benzoic Acid]: 156 to 158 °C and 14%.
Compound `CC(C)(C)c1ccc(/C=N/OCCCOc2ccc(C(=O)O)c(NC(=O)/C=C/c3ccc(-c4ccccc4)cc3)c2)cc1` [Compound 35, 2-{[(2E)-3-(1,1′-Biphenyl-4-yl)prop-2-enoyl]amino}-4-[3-({[(1E)-(4-tert-butylphenyl)methylidene]amino}oxy)propoxy]-benzoic Acid] returned a melting point of 169 to 171 °C. Also, the inhibition at 25 µM in series [1] (setting [3]) came out at 16%.
The matching figures for `CC(C)(C)c1ccc(/C=N/OCCCOc2ccc(C(=O)O)c(NC(=O)c3ccc(-c4ccccc4)cc3)c2)cc1` [Compound 36, 2-[(1,1′-Biphenyl-4-ylcarbonyl)amino]-4-[3-({[(1E)-(4-tert-butylphenyl)methylidene]amino}oxy)propoxy]benzoic Acid]: 155 to 158.5 °C and 23%.
